Assay results as given in patent US10253002B2, “Compounds and methods of treating infections” (Neoculi Pty Ltd., priority 2013, dated 2019).
Values after ≈ are worked out from the molar mass of the structure shown. Read-outs that look alike come from different tables or passages of the source.

Columns and labels:
[1] = system: methicillin-resistant Staphylococcus aureus (MRSA); assay: Broth microdilution MIC (CLSI), Example 1; type: cell-based
Description: Cation adjusted Mueller Hinton Broth (CAMHB) was prepared using 100 mL sterile Mueller Hinton broth (pH adjusted). To each 100 mL volume, 125 μL of calcium stock solution (10 mg Ca^2+ per ml) and 43 μL magnesium stock solution (10 mg Mg^2+ per mL) was aseptically added. Sufficient broth is made up for daily use, with unused portions being stored at 4° C. overnight.
Potency was described as 1000 mg/g or 100%. The powder was dissolved in 10 mL DMSO and 1 mL volumes were aliquoted into eppendorf tubes and stored at −80° C.
For Staphylococcus aureus, a working solution of 256 μg/mL was prepared by diluting stock solutions as described above 1:100 in CAMHB (100 μL into 9.9 mL).
Serial dilutions were prepared in 96 well plates were set up in a safety cabinet according to methods standard in the art. Briefly: 90 μL of the working antibiotic solution was added to each well in Column 12 of the plate, and mixed well, before 90 μL was transferred to column 11. The solutions were mixed again, and then transferred to the next column as before, continuing the dilutions through to column 3. Mixing the well requires the pick up and expulsion of 90 μL in each well 3-4 times before picking up and transferring the 90 μL to the next well. […] The trays were set up as follows: 2 strains were tested in duplicate in one tray, such that strain 1 was located in rows A to D, strain 2 was located in rows E to H, etc.
Fresh cultures of bacteria were prepared for testing on sheep blood agar (SBA), and overnight incubation at 37° C. as follows; 2-3 colonies of each strain in 7 mL sterile saline, and the OD600 measured as an indication of the density (approx. […] or 0.5 McFarland Standard). The bacterial suspension was adjusted to a final absorbance of 0.08 to 0.100, using saline to achieve correct density, and as the blank. Within 15 minutes of preparation, the adjusted bacterial suspension with sterile saline 1:20 (1 mL into 19 mL sterile saline) to achieve a final bacterial concentration of 4 to 5×10^6 CFU/mL. The bacterial solution was placed into a sterile trough and 10 μL of bacterial solution added into wells 2 through to 12 on each required row (dilution of 1:10, with final concentration of bacteria in wells=5×10^5 CFU/mL). The tray was sealed and incubated at 37° C. for 18-24 h. The purity of bacterial suspension was confirmed by streaking out 50 μL of the 1:20 dilution onto a SBA plate, which was incubated for 37° C. for 18 h and examined. Viable counts were carried out to ensure that the correct concentration of bacteria and been added to the wells. The diluted bacterial solution (4 to 5×10^6 CFU/mL) was diluted 1:10 downwards by adding 100 μL to 900 μL of sterile saline in sterile tubes, and the serial dilutions continued 1:10 for 5 tubes. 100 μL (4-5 drops) of the 4th and 5th dilutions (tube 4=105 and tube 5=10^6 CFU/ml) was plated around in duplicate on pre-dried PCA agar plates and incubated at 37° C. overnight. The following day the number of colonies on the plates was counted and the average count in 100 μL obtained. The study was multiplied by 10 to obtain a viable bacterial count per mL.
Minimum inhibitory concentrations (μg/mL) were determined using the broth microdilution method recommended by the Clinical and Laboratory Standards Institute (CLSI) (Methods for Dilution Antimicrobial Susceptibility Tests for Bacteria That Grow Aerobically; Approved Standard—Seventh Edition. CLSI M7-A7, 2006; Performance Standards for Antimicrobial Disk and Dilution Susceptibility Tests for Bacteria Isolated from Animals; Approved Standard—Second Edition. CLSI M31-A2, 2002; Performance Standards for Antimicrobial Susceptibility Testing; CLSI M2-A9, 2006).
MIC breakpoints were determined by visual assessment and then confirmed using an ELISA plate reader, measuring absorbance levels at 450 nm.

[2] = system: RNA synthesis in S. aureus ATCC 29213; assay: Macromolecular synthesis assay: RNA synthesis ([3H] uridine); type: cell-based, Staphylococcus aureus; conditions: 0.25 to 8 fold the MIC; rifampicin positive control
Description: Cells were grown at 35° C. overnight on Trypticase Soy agar. A colony from the plate was used to inoculate 10 ml of Mueller Hinton broth II (MHBII), and the culture was grown to early exponential growth phase (OD600==0.2 to 0.3) while incubating in a shaker at 35° C. and 200 rpm.
When cells reached early exponential phase, 100 μL of culture was added to triplicate wells containing various concentrations of test compound or control antibiotics (5 μL) at 20× the final concentration in 100% DMSO. A 5% DMSO treated culture served as the “no drug” control for all experiments. Cells were added in MHBII at 105% to account for the volume of drug added to each reaction or in M9 minimal medium for protein synthesis reactions. Following 15 min incubation at room temperature, either [^3H] thymidine (DNA synthesis), [^3H] uridine (RNA synthesis) or [^3H] leucine (protein synthesis) was added at 0.5-1.0 μCi per reaction, depending on the experiment. Reactions were allowed to proceed at room temperature for 15-30 min and then stopped by adding 12 μL of cold 5% trichloroacetic acid (TCA) or 5% TCA/2% casamino acids (protein synthesis only). […] After washing three times with 5 ml of cold 5% TCA, the filters were rinsed two times with 5 mL 100% ethanol, allowed to dry, and then counted using a Beckman LS3801 liquid scintillation counter.

[3] = water containing 4% DMSO, following initial dilution in 100% DMSO; recent independent research; cited from earlier work
[4] = Staphylococcus aureus, MRSA, MRSA 616, Test 1, read-out: MIC
[5] = Staphylococcus aureus, MRSA, MRSA 747, Test 1, read-out: MIC

Work on CC1(C)S[C@@H]2[C@H](NC(=O)[C@H](N)c3ccccc3)C(=O)N2[C@H]1C(=O)O [Ampicillin] yielded an MIC90 ([1]; MRSA, 21 isolates) greater than 128 µg/mL, an MIC90 ([1]; MRSA, Staphylococcus aureus isolates of Table 3, Test 1, read-out: MIC90) greater than 128 µg/mL and an MIC90 ([1]; Staphylococcus aureus isolates of Table 3, Test 2) greater than 128 µg/mL. The MIC ([1]; Staphylococcus aureus, ATCC 29213 / MRSA, S. aureus strain ATCC 29213, read-out: MIC of control strain (internal quality control)) was 2 µg/mL, the MIC ([1]; Staphylococcus aureus, ATCC 29213 / MRSA, Staph. aureus ATCC 29213, Test 1, read-out: MIC) was 2 µg/mL (≈ 5.72 µM) and the MIC ([1]; Staphylococcus aureus, ATCC 29213 / MRSA, Staph. aureus ATCC 29213, Test 2, read-out: MIC) was 2 µg/mL (≈ 5.72 µM). The MIC ([1]; Staphylococcus aureus, MRSA, 21 isolates, read-out: MIC mode) was greater than 128 µg/mL, the MIC ([1]; Staphylococcus aureus, MRSA, MRSA 516, Test 1, read-out: MIC) was 32 µg/mL (≈ 91.6 µM) and the MIC ([1]; Staphylococcus aureus, MRSA, MRSA 516, Test 2, read-out: MIC) was 32 µg/mL (≈ 91.6 µM). The MIC ([1]; Staphylococcus aureus, MRSA, MRSA 570, Test 1, read-out: MIC) was greater than 128 µg/mL, the MIC ([1]; Staphylococcus aureus, MRSA, MRSA 570, Test 2, read-out: MIC) was greater than 128 µg/mL and the MIC ([1]; Staphylococcus aureus, MRSA, MRSA 580, Test 1, read-out: MIC) was greater than 128 µg/mL. For the same compound, the MIC ([1]; Staphylococcus aureus, MRSA, MRSA 580, Test 2, read-out: MIC) was greater than 128 µg/mL, the MIC ([1]; Staphylococcus aureus, MRSA, MRSA 606, Test 1, read-out: MIC) was 32 µg/mL (≈ 91.6 µM) and the MIC ([1]; Staphylococcus aureus, MRSA, MRSA 606, Test 2, read-out: MIC) was 32 µg/mL (≈ 91.6 µM). It also gave an MIC ([1]; Staphylococcus aureus, MRSA, MRSA 610, Test 1, read-out: MIC) of 128 µg/mL (≈ 366 µM), an MIC ([1]; Staphylococcus aureus, MRSA, MRSA 610, Test 2, read-out: MIC) of 128 µg/mL (≈ 366 µM) and an MIC [1, 4] of 64 µg/mL (≈ 183 µM). For the same compound, the MIC ([1]; Staphylococcus aureus, MRSA, MRSA 616, Test 2, read-out: MIC) was 64 µg/mL (≈ 183 µM), the MIC ([1]; Staphylococcus aureus, MRSA, MRSA 622, Test 1, read-out: MIC) was 64 µg/mL (≈ 183 µM) and the MIC ([1]; Staphylococcus aureus, MRSA, MRSA 622, Test 2, read-out: MIC) was 64 µg/mL (≈ 183 µM). For the same compound, the MIC ([1]; Staphylococcus aureus, MRSA, MRSA 698, Test 1, read-out: MIC) was 64 µg/mL (≈ 183 µM), the MIC ([1]; Staphylococcus aureus, MRSA, MRSA 698, Test 2, read-out: MIC) was 64 µg/mL (≈ 183 µM) and the MIC ([1]; Staphylococcus aureus, MRSA, MRSA 713, Test 1, read-out: MIC) was greater than 128 µg/mL. For the same compound, the MIC ([1]; Staphylococcus aureus, MRSA, MRSA 713, Test 2, read-out: MIC) was greater than 128 µg/mL, the MIC ([1]; Staphylococcus aureus, MRSA, MRSA 718, Test 1, read-out: MIC) was greater than 128 µg/mL and the MIC ([1]; Staphylococcus aureus, MRSA, MRSA 718, Test 2, read-out: MIC) was greater than 128 µg/mL. For the same compound, the MIC ([1]; Staphylococcus aureus, MRSA, MRSA 728, Test 1, read-out: MIC) was 64 µg/mL (≈ 183 µM), the MIC ([1]; Staphylococcus aureus, MRSA, MRSA 728, Test 2, read-out: MIC) was 64 µg/mL (≈ 183 µM) and the MIC ([1]; Staphylococcus aureus, MRSA, MRSA 734, Test 1, read-out: MIC) was greater than 128 µg/mL. For the same compound, the MIC ([1]; Staphylococcus aureus, MRSA, MRSA 734, Test 2, read-out: MIC) was greater than 128 µg/mL, the MIC ([1]; Staphylococcus aureus, MRSA, MRSA 741, Test 1, read-out: MIC) was 8 µg/mL (≈ 22.9 µM) and the MIC ([1]; Staphylococcus aureus, MRSA, MRSA 741, Test 2, read-out: MIC) was 8 µg/mL (≈ 22.9 µM). For the same compound, the MIC [1, 5] was greater than 128 µg/mL, the MIC ([1]; Staphylococcus aureus, MRSA, MRSA 747, Test 2, read-out: MIC) was greater than 128 µg/mL and the MIC ([1]; Staphylococcus aureus, MRSA, MRSA 773, Test 1, read-out: MIC) was 128 µg/mL (≈ 366 µM). The MIC ([1]; Staphylococcus aureus, MRSA, MRSA 773, Test 2, read-out: MIC) was 64 µg/mL (≈ 183 µM), the MIC ([1]; Staphylococcus aureus, MRSA, MRSA 778, Test 1, read-out: MIC) was greater than 128 µg/mL and the MIC ([1]; Staphylococcus aureus, MRSA, MRSA 778, Test 2, read-out: MIC) was greater than 128 µg/mL. It also gave an MIC ([1]; Staphylococcus aureus, MRSA, MRSA 786, Test 1, read-out: MIC) of 32 µg/mL (≈ 91.6 µM), an MIC ([1]; Staphylococcus aureus, MRSA, MRSA 786, Test 2, read-out: MIC) of 64 µg/mL (≈ 183 µM) and an MIC ([1]; Staphylococcus aureus, MRSA, MRSA 787, Test 1, read-out: MIC) greater than 128 µg/mL. For the same compound, the MIC ([1]; Staphylococcus aureus, MRSA, MRSA 787, Test 2, read-out: MIC) was greater than 128 µg/mL, the MIC ([1]; Staphylococcus aureus, MRSA, MRSA 815, Test 1, read-out: MIC) was 64 µg/mL (≈ 183 µM) and the MIC ([1]; Staphylococcus aureus, MRSA, MRSA 815, Test 2, read-out: MIC) was 64 µg/mL (≈ 183 µM). The MIC ([1]; Staphylococcus aureus, MRSA, MRSA 823, Test 1, read-out: MIC) was greater than 128 µg/mL, the MIC ([1]; Staphylococcus aureus, MRSA, MRSA 823, Test 2, read-out: MIC) was greater than 128 µg/mL and the MIC ([1]; Staphylococcus aureus, MRSA, MRSA 844, Test 1, read-out: MIC) was 128 µg/mL (≈ 366 µM). For the same compound, the MIC ([1]; Staphylococcus aureus, MRSA, MRSA 844, Test 2, read-out: MIC) was 128 µg/mL (≈ 366 µM) and the MIC50 ([1]; Staphylococcus aureus, MRSA, 21 isolates) was 64 µg/mL (≈ 183 µM).
In the case of N=C(N/N=C/c1ccc(Cl)cc1)N/N=C/c1ccc(Cl)cc1 [NCL812, 1,3-bis[(E)-(4-chlorophenyl)methyleneamino]guanidine], the “inhibition of RNA synthesis” value [2] is reported as “very similar to the DNA synthesis study”, the MIC [1, 4] is reported as 8 µg/mL (≈ 23.9 µM) and the MIC [1, 5] is reported as 8 µg/mL (≈ 23.9 µM). For the same compound, the solubility [3] was “complete solubility”.
